Reference: EP4361137A1, “PRUNE1 INHIBITORS AND THERAPEUTIC USE THEREOF” (CEINGE Biotecnologie Avanzate Franco Salvatore s.c. a r.l., priority 2022, dated 2024)
Several values for one entry are separate records, joined by “and”; a condition that tells them apart may be missing. Equal entries are not always repeated. Entries after “also recorded” stand apart in the source; their conditions may differ. One block for each compound: values may come before it.

How the values were obtained:
Caspase 3 = Caspase 3 activity assay; assay type: cell-based, murine; conditions: MATH1-Prune1/TP53-/- cells; Vincristine 0.3 nM and 0.03 nM; LEO-AA7.5(S)T 10 µM; 24 hours
Method: MATH1-Prune1/TP53-/- cells (3×10^4) were plated in 96-well plate and treated with different doses of Vincristine (i.e., 0.3 nM or 0.03 nM) alone or combined to 10 µM LEO-AA7.5(S)T. Vehicle- (0.01% DMSO) treated cells were used as negative controls. Staurosporine-treated cells (1 µM) were used as positive controls of the assays. The assay was performed by using Caspase-3 Activity Assay Kit (#5723, Cell Signaling), by following the manufacture's instruction. Briefly, after 24 hours from the treatment started, cell medium was removed and 30 ul of cell lysis buffer (PI-7018, Cell Signaling) were added. The plate was then incubated for 5 minutes on ice. Later, 25 ul of cell lysate were mixed with 200 ul substrate solution B (#11734S, Cell Signaling) in a black 96 well plate. Fluorescence was detected by using a multimode plate reader (Enspire, 2300, PerkinElmer). The positive control AMC (25 µl, #11735S, Cell Signaling) mixed with 200 ul 1X assay buffer A (#11736S, Cell Signaling) was used as positive control of fluorescence.

[1] = test system: MATH1-Prune1/TP53-/- cells; assay: Real-time cell proliferation assay (cell index, xCELLigence); assay type: cell-based, murine; conditions: impedance every 2 min over 24 h
Method: Primary murine TNBC cells from tumors generated by MMTV-Prune1/Wnt1 mice [Ferrucci et al., 2021] and Primary murine Medulloblastoma Group 3 cells from tumors generated MATH-Prune1/TP53-/- mice were obtained (2 months from tumor onset).
(§1) Cellular proliferation rates were determined with the xCELLigence system (Roche). D425-MED, MATH-Prune1/TP53-/- and MMTV-Prune1/Wnt1 cells (8 × 10^3) were treated with increasing concentrations of LEO-AA7.5(S)T, harvested, and then added to a single well of an xCELLigence E-plate 16. The proliferation rates were determined at 2-min intervals by measuring the impedance changes across the electrodes at the bottoms of the wells. These cell index values were calculated by the xCELLigence RTCA software. with vehicle-treated cells were the negative control. Impedance was measured every 2 min over 24 hours. The IC50 values were calculated through nonlinear regression analysis performed with Graph Pad Prism 9 ([inhibitor] vs. response (three parameters). Data are means ± SD of three independent experiments.

D425-MED cells [2] = assay: as above; assay type: cell-based, human; conditions: combination with Vincristine
Method: J774A.1 murine macrophages (referred to as J774 cells; ATCC: #TIB-67), MMTV-Prune1-Wnt1 cells were grown in high-glucose Dulbecco's modified Eagle's medium (DMEM; Euroclone) supplemented with 20% (v/v) FBS, 2 mM L-glutamine, and 1% (v/v) antibiotics (Pen/Strep). D425-MED, D425-MED-Luc and […] cells were grown in high-glucose Dulbecco's modified Eagle's medium (DMEM; Euroclone) and Iscove's Modified Dulbecco's Medium (IMDM; Sigma) at 1:1 (v/v) dilution supplemented with 20% (v/v) FBS, 2 mM L-glutamine, 1% non-essential amino acid solution (M7145; Sigma-Aldrich/Merck), and 1% (v/v) antibiotics (Pen/Strep). The cells were grown at 37 °C in a humidified atmosphere of 95% air, 5% CO2 (v/v).
D425.MED and MMTV-Prune1/Wnt1 cells were plated and treated with increasing concentrations of LEO-AA7.5(S)T for 24 hours. Water-treated cells were used as negative control for the experiments.
as §1

D425-MED cells [3] = conditions: Ferrucci et al., 2018, read-out: IC50 reported for AA7.1 in the same D425-Med cells; cited from earlier work
MATH1-Prune1/ TP53-/- = assay: Orthotopic implantation of MATH1-Prune1/TP53-/- cells in immunocompetent syngeneic mice, tumor growth; assay type: in vivo, FVB WT mice; conditions: AA7.1 at 30 mg/kg/day or 60 mg/kg/day intraperitoneally
Method: MATH1-Prune1/ TP53-/- were implanted into the right cerebellar hemisphere of female (n.10) immunocompetent syngeneic mice model (5 weeks old, strain: FVB WT) to establish intracerebellar MATH1-Prune1/ TP53-/- models. Mice were anaesthetised with Ketamine/ Xylazine (87.5 mg/kg, 12.5 mg/kg, respectively). The mice were then placed in a stereotactic frame by hooking their incisors onto the frame hold. A small skin incision (length, 1 mm) and a burr hole (diameter, 0.7 mm) were created using a microsurgical drill (Fine Science Tools, Foster City, CA, USA of MATH1-Prune1/ TP53-/- (1.5 ×10^5) were resuspended in 10 µL PBS and injected slowly through the burr hole into the right cerebellar hemisphere (stereotactic coordinates from Bregma: anteroposterior, 5.5 mm; right lateral, 2.1 mm; dorsoventral 5.0 mm), with a steady force over 30 s, using a 10-AL, 26-gauge Hamilton Gastight model 1701RN syringe needle (SigmaAldrich) that was inserted perpendicular to the cranial surface. The incision was sutured using Safil polyglycolic acid synthetic absorbable suture (6/0). The mice were kept on a warming blanket after the surgery, to help them to maintain their body temperature. Their mobility and respiratory patterns were observed continuously, and once the mice had recovered from the anaesthesia; they were place in a sterile housing cage. The mice were monitored daily for development of potential neurological deficits. 10 days after the implantation of the cells, the mice were imaged, and tumour growth was evaluated by bioluminescence acquisition using an imaging system (IVIS 3D Illumina; Xenogen/ Caliper). For the acquisitions, the mice were anaesthetised by inhalational of isoflurane, and the D-luciferin (122799; PerkinElmer) (15 mg/mL stock) was injected intraperitoneally (100 µL per 10 g body weight). At 5 min from the luciferin injection, the mice were imaged for 3 min. To quantify the bioluminescence, the integrated fluxes of photons (p/s) within each area of interest were determined using the Living Images Software Package 3.2 (Xenogen-Perkin Elmer). […] After 17 days from tumour implantation (i.e., after one weeks of LEO-AA7.5(S)T treatment), the mice were sacrificed, and the organs were collected for immunohistochemistry and immunofluorescence analyses.
Paraffin sections of the tumor specimens (thickness, 3 µm) were deparaffinised and rehydrated by immersing the slides in Xylene Substitute (A5597; Sigma), as three washes for 5 min each, then serially in 100%, 95%, 70%, 50%, and 30% ethanol (two washes for 10 min, for each), and deionised water (two washes, for 5 min each). The washes were then followed by PBS, PBS containing 0.02% Triton-X 100 (215680010; Acros Organics), and PBS (two washes for 5 min, for each). For antigen retrieval, the slides were immersed in boiling 10 mM sodium citrate buffer (pH 6.0) using a microwave oven, and then maintained at sub-boiling temperature for 10 min. The slides were left to cool at room temperature for 30 min. The sections were then washed by immersion in distilled water for 5 min. To block endogenous peroxidase activity, the tissue sections were placed in a solution with 3.0% hydrogen peroxide in methanol for 15 min. Then, to decrease the nonspecific background fluorescence, the tissues were digested by treating them with a solution containing 0.2% trypsin (T2600000; Sigma-Aldrich) and 0.001% CaCl2 for 10 min at 37 °C, in a humidified chamber. The slides were then washed in PBS, PBS containing 0.02% Triton-X 100 (215680010; Acros Organics), and PBS (two washes for 5 min, for each). The tissue sections were blocked with 6% bovine serum albumin (A9418; Sigma), 5% fetal bovine serum (ECS0180L; Euroclone), and 20 mM MgCl2 in PBS containing 0.02% Triton-X 100, for 1 h at room temperature, and incubated overnight with the primary antibodies at 4 °C in a humidified chamber. […]

[4] = 15, 30, and 60 mg/kg intraperitoneally daily for 1 week; Ferrucci et al.; cited from earlier work

Caspase 3 activation, single agent (Caspase 3): activation of Caspase 3
SMILES: CC[C@]1(O)C[C@H]2CN(CCc3c([nH]c4ccccc34)[C@@](C(=O)OC)(c3cc4c(cc3OC)N(C=O)[C@H]3[C@@](O)(C(=O)OC)[C@H](OC(C)=O)[C@]5(CC)C=CCN6CC[C@]43[C@@H]65)C2)C1 [Vincristine]
half maximal inhibitory concentration (IC50) for the inhibition of cell proliferation index [1]: 35 µM and 19,6 µM

SMILES: COc1ccc(CNc2ncnc(N3CCCC(CO)C3)n2)cc1 (stereo not drawn) [compound (I)]
dose of the chemotherapeutics diminished by synergistic action with Vincristine (D425-MED cells [2]): more than 100 fold

SMILES: COc1ccc(CNc2ccnc(N3CC[C@@H](O)C3)n2)cc1 [AA7.1, (R)-1-(4-((4-methoxybenzyl)amino)pyrimidin-2-yl)pyrrolidin-3-ol, reference compound]
IC50 (D425-MED cells [3]): 130 ± 52.1 µM
MB progression / tumour growth in cerebellum (bioluminescence) (MATH1-Prune1/ TP53-/-): inhibit MB progression; also recorded: impairment of tumour growth
acute toxicity (hematological parameters, hepatotoxicity, nephrotoxicity) [4]: no immediate acute toxicity
